The term melting point denotes the temperature of the solid-liquid transition.

In turn, `COc1cc(OC)c(C(=O)n2cccc2Br)cc1OC` registered a melting point of 120 to 121 °C.
As for `N#CCCOCc1cc(Cl)nc(Cl)c1`, the figure is 65.5 °C; as for `CC(=O)NCC=C1CCc2ccc3nc(CCCCc4ccccc4)oc3c21`, 113 to 115 °C; as for `N#Cc1c[nH]nc1-c1ccccc1Cl`, 160 °C.
`COc1ccc(COCn2cc(Cl)cnc2=O)cc1` had a melting point of 118 °C.
With `O=C(NCCCCCCCCCNC(=O)c1ccc(OC(F)(F)F)cc1)c1ccc(OC(F)(F)F)cc1` the figure was 144 to 145 °C; with `O=C1Cc2cccc(C(=O)c3ccccc3F)c2N1`, 209 to 210 °C.
With `Cc1ccc([N+](=O)[O-])c(C=O)c1C` the figure was 66 to 68 °C.
`CCc1nc(-c2cc3[nH]c(=O)c(=O)[nH]c3cc2[N+](=O)[O-])c[nH]1` returned a melting point of 249 to 250 °C.
With `O=Cc1ccc2noc(-c3cccc(Cl)c3)c2c1` the figure was 148 °C; with `CCCn1c(=O)[nH]c2ccc(C(=O)c3ncc4ccccn34)cc2c1=O`, 304 °C.
As for `COc1ccccc1OC1(Cl)C=NC(N2CCOCC2)=NC1Cl` (stereo not drawn), the figure is 180 °C.
As for `Cc1cccc(NC(=O)NC2N=C(C3CCCCC3)c3cccc(C)c3N(C)C2=O)c1` (stereo not drawn), the figure is 196 to 198 °C; as for `COC=C(C(=O)OC)c1csc2ccc(C=Cc3ccccc3)cc12`, 180 to 181 °C.
`CCOC(=O)Nc1ccc2ccccc2c1`: the melting point lay within 69 to 70.5 °C.
As for `CCc1cccc2c(C(=O)OC)cnnc12`, the figure is 59 to 60 °C; as for `COc1cc(CC(C#N)=CNc2ccccc2)cc(OC)c1N(C)C(C)=O`, 202 to 204 °C.
The molecule `CC(c1oc2ccccc2c(=O)c1-c1cccc(F)c1)n1nc(-c2ccc(OCc3ccccc3)cc2)c2c(N)ncnc21` (stereo not drawn) registered a melting point of 176 to 178 °C.
With `CCc1c(C)[nH]c(=O)c(I)c1Oc1cc(C)cc(C)c1` the figure was 240 °C; with `O=Cc1c(OCc2ccccc2)cccc1C1OCCCO1`, 85 to 87 °C.
As for `CCc1c(CC(=O)NCCCCCC(=O)NCCc2ccc(NS(C)(=O)=O)cc2)ccc(OC)c1OC`, the figure is 110 to 112 °C; as for `C=CC(=O)Oc1ccc(-c2cccc(-c3ccc(OC(=O)C=C)cc3)c2)cc1`, 106 °C.
As for `CCCCC1Oc2ccc(Cl)cc2N(CC(O)CO)C1=O` (stereo not drawn), the figure is 69.5 °C.
In the case of `CN(CCc1c[nH]c2ccc(CN)cc12)Cc1ccccc1`, the melting point lay in the range of 84 to 85 °C.
`CC1=NC(NC(=O)Nc2cccc(C)c2)C(=O)N(CC(=O)N2CC3CCC(CC3)C2)c2c(C)cccc21` (stereo not drawn) registered a melting point of 177 to 179 °C.
As for `CC(C)Oc1cc(CCCOc2ncccc2CC(=O)O)n(Cc2ccc(Cl)cc2Cl)n1`, the figure is 88 to 90 °C; as for `CCOC(=O)C1=C(C)Nc2snc(CCN3CCN(c4ccccc4)CC3)c2C1c1cccc([N+](=O)[O-])c1` (single isomer, unassigned; (+)), 148 to 149 °C.
With `CCONCCCC=C1C(=O)CC(c2ccc(Cl)cc2)CC1=O` (stereo not drawn) the figure was 77 °C; with `COc1cc2c(O)c(S(=O)(=O)N(C)C)cnc2cc1Cl`, 316 to 318 °C; with `CNc1nc(Nc2ccc(Cl)c(Cl)c2)ncc1NC(=O)c1ccccc1`, 265 to 267 °C.
With `Cc1ccc2c(-c3cnc4[nH]cc(C(=O)N[C@H](C)C(=O)N5CC(C#N)C5)c4n3)nn(C)c2c1` the figure was 260 to 275 °C; with `COC(=O)C1=C(C)N=C(OC)N(C(=O)Oc2ccc([N+](=O)[O-])cc2)C1c1ccc2nonc2c1` (stereo not drawn), 180 to 183 °C.
Turning to `CCCOc1ccc(SC(C)(C)C)cc1C(N)=O`, the melting point is 136 to 138 °C.
`NC(=O)C(F)(F)C(F)(F)C(F)(F)C(F)(F)C(F)(F)C(F)(F)C(F)(F)F` had a melting point of 136 to 137 °C.
As for `OC(Cc1ccncc1)(c1ccc(F)cc1)c1ccc(F)cc1`, the figure is 158 to 160 °C; as for `c1ccc(-c2nn3c(c2-c2nc4ncccc4o2)CCC3)nc1`, 182 to 184 °C; as for `Cc1ccc(S(=O)(=O)N(c2ccc(F)cc2[N+](=O)[O-])C(C)C)cc1`, 129 to 130 °C.
With `Oc1ccc(Cl)nc1Cl` the figure was 136 to 138 °C; with `COc1ccc(NC(=O)c2ccc(F)c(F)c2)cc1NS(=O)(=O)c1cccc([N+](=O)[O-])c1`, 150 to 160 °C.
With `COc1cccc(-c2ccc3nnn(Cc4ccc5ncccc5c4)c3n2)c1` the figure was 133 to 135 °C; with `COc1c(NCc2cccc(C)c2)cc2oc(=O)[nH]c2c1F`, 160 to 161 °C; with `COC(=O)CCCc1cc2nc(Cl)ccc2n1S(=O)(=O)c1ccccc1C(F)(F)F`, 127 °C.
On to `COC(=O)C(C)c1ccc2cc(OC(=O)CO[N+](=O)[O-])ccc2c1` (stereo not drawn), for which the melting point lay within 72 to 74 °C.
In turn, `O=C1c2ccccc2NC(=S)C2CCCN12` (stereo not drawn) came in with a melting point of 268 to 270 °C.
With `Cc1cc2c(cc1O)C(C)(C)CC1(CC(C)(C)c3cc(OCCO)c(C)cc3O1)O2` (stereo not drawn) the figure was 186 to 188 °C.
With `CCN(CCO)c1ccc(I)cc1` the figure was 53 to 54 °C; with `COc1ccc(Nc2nccc(-c3ccc(N4CCNCC4)nc3)n2)cn1`, 160 to 165 °C; with `CNCC[C@H]1CC[C@H](C(=O)O)CC1`, 212 to 214 °C.
With `CC(C)(C)OC(=O)NC(CO)c1ccc(F)cc1` (stereo not drawn) the figure was 85 to 86 °C; with `COc1ccccc1CN1CCc2cc(OCc3ccccc3)c(OC)cc2C1`, 85 to 86 °C.
`COc1cc(-n2c(OC)nc(C(F)(F)F)cc2=O)c(F)cc1Br`: the melting point lay in the range of 175 to 177 °C.
`O=C(Cc1ccc(Cl)cc1)N1CCCCC1`: the melting point is 85 to 85.5 °C.
As for `Cn1nnnc1CN1CCC[C@@H](OCc2cc(C(F)(F)F)cc(C(F)(F)F)c2)[C@H]1c1ccccc1` (relative stereo), the figure is 75 to 77 °C.
For `O=C(Nc1cccc(C(F)(F)F)c1)c1cc(-c2ccc(F)cc2F)ccc1O`, the melting point was 202 to 203 °C.
With `COC(=O)C1Oc2ccc(OC)cc2C(C)(c2ccccc2)O1` (stereo not drawn) the figure was 70 to 71 °C; with `CCCc1nc(C)c(C=O)n1Cc1ccc(-c2ccccc2C(=O)O)cc1`, 243 to 245 °C.
With `Brc1ccc(-c2coc(-c3ccccn3)n2)cn1` the figure was 85 °C.
Consider `O=C(NCCOc1ccc(CC(Oc2ccc(C(F)(F)F)cc2)C(=O)O)cc1)c1ccc(-c2ccccn2)cc1` (stereo not drawn), for which the melting point was in the range of 154 to 155 °C.
`COC(=O)Oc1nc2c(N)ncnc2n1Cc1ccccc1` showed a melting point above 300 °C.
Turning to `CCCn1c(=O)c2c(nc(/C=C/c3ccc(OC)c(O)c3)n2C)n(CCC)c1=O`, the melting point is 200 to 204 °C.
As for `C=CCN1C(=O)C(C)(C)c2ccc(-c3nc4ccccc4[nH]3)cc21`, the figure is 197 to 200 °C; as for `Nn1c(=O)n(-c2cc(Cl)ccc2O)c2ccc(C(F)(F)F)cc21`, 228 to 230 °C.
Regarding `O=C(O)CCc1[nH]nc2c1CCCC2`, the melting point lay in the range of 135 to 136 °C.
With `CN(Cc1ccc(NC(=O)C2=Cc3cc(-c4ccc(OC(F)(F)F)cc4)ccc3S(=O)(=O)CC2)cc1)C1CCOCC1` the figure was 261 to 263 °C; with `COc1ccc(-c2ccc(-n3nnnc3C(F)(F)F)cc2)cc1C=O`, 186 to 187 °C.
As for `COc1ccc(-c2nc(Cl)sc2-c2ccc(OC)cc2)cc1`, the figure is 92 to 94 °C.
In turn, `Cn1c(=O)c2c(NC(=O)C3CCCCC3)onc2n(C)c1=O` showed a melting point of 210 to 212 °C.
As for `Cc1cccc(NC(=O)NCC(=O)N(CC(=O)NCc2ccccc2)c2ccccc2)c1`, the figure is 204 °C; as for `COc1cccc(C2CCCN2CCN2C(=O)c3ccccc3C2=O)c1` (stereo not drawn), 110 to 111 °C.
With `Cn1ccc2c3c(c(C(=O)OCc4ccccc4)cc21)C(=O)NC3=O` the figure was 186 to 189 °C; with `O[C@H]1CC[C@H](Nc2nccc(-c3n[nH]c4c(C(F)(F)F)cccc34)n2)CC1`, 266 to 270 °C.
As for `CCCCOC(=O)NC1(c2ccccc2Cl)CCCCC1=O` (stereo not drawn), the figure is 130 to 132 °C; as for `c1coc(Cn2c(NC3CCN(CCNc4nccs4)CC3)nc3ccccc32)c1`, 153 °C.
With `COc1cc(N)c(Cl)cc1C(=O)N[C@H]1CCN(CCNc2ncccc2C#N)C[C@H]1OC` (relative stereo), the melting point was 134 °C.
With `Cc1cccc(C)c1CNc1cc(C(=O)N(C)C)cc2c1nc(CO)n2C` the figure was 171 to 172 °C.
Regarding `CCc1c(-c2ccc(O)cc2)c2cc(C(C)=O)c3ccc(O)c1n32`, the melting point lay in the range of 167 to 173 °C.
With `CCc1nc2c(N)nc3ccccc3c2n1CC1(O)CCCC1` the figure was 210 °C; with `ON=Cc1c(-c2ccccc2F)ccc2c1OCO2`, 197 to 198 °C.
With `CCCCc1nc(Sc2ccccc2)c(C(=O)OCC)[nH]1` the figure was 74 °C; with `CCCCCCCCCCCCCCCCCCOCCSCCOC(=O)N(Cc1ccccn1)C(C)=O`, 47 to 49 °C; with `N#CC(C(=O)C(F)(F)C(F)(F)F)c1ccccc1` (stereo not drawn), 94 to 95 °C.
With `CC(C)(CC(O)(Cn1ccc2c1CCCC2=O)C(F)(F)F)c1cc(-c2cncnc2)cc2c1OCC2` (stereo not drawn) the figure was 213 to 214 °C; with `CCOC(=O)c1nn(-c2ccc(Cl)cc2Cl)c(-c2ccc(Cl)cc2)c1C`, 124 °C; with `CCOC(=O)c1ccc(S(N)(=O)=O)cc1`, 102 to 104 °C.
For the molecule `O=C1N(Cc2nc3ccccc3s2)c2ccccc2C12COc1cc3c(cc12)OCCO3` (stereo not drawn), the melting point lay in the range of 164 to 166 °C.
As for `CCc1cccc(C(=O)c2nc(OC)cc(OC)n2)c1N`, the figure is 122 to 123 °C; as for `CCC1(CCCCN2CCN(c3ccccc3Cl)CC2)C(=O)Nc2ccccc21` (stereo not drawn), 145 to 148 °C; as for `COc1cc(Cc2cnc(N)nc2N)c2c(c1OC)OCC=C2`, 232 to 234 °C.

These data come from a melting point compilation (Tetko et al.; mined from patent text by program, amines drawn as free bases though some values may be those of a salt).
